Assay results from ChEMBL document CHEMBL1201862, “PubChem BioAssay data set” (2004).
The source made the active and inactive calls.

Key:
[1] = target: Dual specificity protein phosphatase 3 (Homo sapiens, UniProt P51452); experiment: VHR phosphatase inhibition, dose response, selectivity assay for STEP inhibitor project, biochemical (AID 602374); format: functional; conditions: read-out: IC50_Mean
[2] = target: T1, Carboxy-terminal domain RNA polymerase II polypeptide A small phosphatase 1 (Homo sapiens, UniProt Q9GZU7); experiment: inhibitors of CTDSP1, concentration-response testing, biochemical assay, absorbance-based, actives from ultra-high-throughput screening (AID 540297); format: functional
T1 sequence (Q9GZU7 whole entry): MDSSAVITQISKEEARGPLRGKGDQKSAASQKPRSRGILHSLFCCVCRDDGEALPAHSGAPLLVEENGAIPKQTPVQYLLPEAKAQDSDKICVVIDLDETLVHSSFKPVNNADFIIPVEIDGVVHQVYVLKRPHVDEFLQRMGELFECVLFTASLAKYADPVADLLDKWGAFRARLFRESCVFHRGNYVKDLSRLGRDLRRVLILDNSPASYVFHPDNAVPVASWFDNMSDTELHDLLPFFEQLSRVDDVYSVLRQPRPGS

[3] = target: T2, Tyrosine-protein phosphatase non-receptor type 11 (Homo sapiens, UniProt Q06124); experiment: SHP2 phosphatase inhibition, dose response, selectivity assay for STEP inhibitor project, biochemical (AID 602367); format: functional; conditions: read-out: IC50_Mean
T2 sequence (Q06124 whole entry): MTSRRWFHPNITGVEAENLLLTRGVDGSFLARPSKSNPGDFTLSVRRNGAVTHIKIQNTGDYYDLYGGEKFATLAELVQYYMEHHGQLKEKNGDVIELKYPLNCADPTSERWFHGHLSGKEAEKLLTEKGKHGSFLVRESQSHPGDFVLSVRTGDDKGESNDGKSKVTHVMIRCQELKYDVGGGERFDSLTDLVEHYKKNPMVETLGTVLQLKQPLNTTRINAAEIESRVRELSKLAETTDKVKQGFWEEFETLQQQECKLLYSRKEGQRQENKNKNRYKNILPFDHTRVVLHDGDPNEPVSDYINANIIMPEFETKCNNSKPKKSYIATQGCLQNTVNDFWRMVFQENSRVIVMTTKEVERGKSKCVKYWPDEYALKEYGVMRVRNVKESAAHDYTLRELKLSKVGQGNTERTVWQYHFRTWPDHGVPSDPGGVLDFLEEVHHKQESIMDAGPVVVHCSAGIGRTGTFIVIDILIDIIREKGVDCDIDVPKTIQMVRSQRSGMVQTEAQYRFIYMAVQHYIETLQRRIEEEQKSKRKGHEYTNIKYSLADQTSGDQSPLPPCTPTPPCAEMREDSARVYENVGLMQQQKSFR

[4] = target: T3, Tyrosine-protein phosphatase non-receptor type 5 (Homo sapiens, UniProt P54829); experiment: STEP phosphatase inhibitors, confirmation, biochemical, fluorescence intensity, uHTS hits (AID 602372); format: functional; conditions: read-out: IC50_Mean
T3 sequence (P54829 whole entry): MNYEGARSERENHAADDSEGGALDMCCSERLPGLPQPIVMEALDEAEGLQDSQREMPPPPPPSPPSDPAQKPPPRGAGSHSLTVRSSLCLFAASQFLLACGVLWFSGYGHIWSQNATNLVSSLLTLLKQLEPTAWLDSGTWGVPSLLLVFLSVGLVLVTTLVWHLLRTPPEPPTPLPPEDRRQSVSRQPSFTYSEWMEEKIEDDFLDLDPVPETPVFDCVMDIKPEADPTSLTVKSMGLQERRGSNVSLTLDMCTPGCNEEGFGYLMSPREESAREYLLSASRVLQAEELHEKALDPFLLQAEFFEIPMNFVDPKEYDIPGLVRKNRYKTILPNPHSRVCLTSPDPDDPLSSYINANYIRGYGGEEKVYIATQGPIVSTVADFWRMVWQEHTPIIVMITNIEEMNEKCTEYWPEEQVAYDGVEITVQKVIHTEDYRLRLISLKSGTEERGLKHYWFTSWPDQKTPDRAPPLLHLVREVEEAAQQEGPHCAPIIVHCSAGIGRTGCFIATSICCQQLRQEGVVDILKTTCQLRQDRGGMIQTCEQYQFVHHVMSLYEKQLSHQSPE

[5] = cells; format: functional, cell-based; conditions: HEK-CNG
[6] = target: T4, Galanin receptor type 3 (Homo sapiens, UniProt O60755); experiment: Fluorescence-based cell-based primary high throughput dose response assay to identify antagonists of the Galanin Receptor 3 (GalR3).; format: functional
T4 sequence (O60755 whole entry): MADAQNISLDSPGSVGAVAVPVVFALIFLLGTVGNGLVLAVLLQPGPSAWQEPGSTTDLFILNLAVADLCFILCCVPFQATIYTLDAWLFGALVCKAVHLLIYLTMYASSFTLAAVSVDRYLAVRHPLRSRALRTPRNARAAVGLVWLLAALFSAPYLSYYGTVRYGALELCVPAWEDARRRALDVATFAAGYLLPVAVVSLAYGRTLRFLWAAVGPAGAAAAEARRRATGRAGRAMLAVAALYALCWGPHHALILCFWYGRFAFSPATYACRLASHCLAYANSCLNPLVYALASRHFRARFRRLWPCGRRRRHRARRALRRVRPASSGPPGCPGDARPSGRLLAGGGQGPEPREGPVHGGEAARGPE

[7] = target: Protein Wnt-3a (Mus musculus, UniProt P27467); experiment: Wnt3a-driven reporter signaling inhibition, dose response, selectivity assay for Gli-SUFU antagonist project, Wnt-LIGHT cells, luminescence (AID 651570); format: functional; conditions: read-out: IC50_Mean;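 further: Wnt-LIGHT reporter cells stimulated with conditioned medium from Wnt3a-producing cells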
Chain of Protein Wnt-3a (P27467 whole entry): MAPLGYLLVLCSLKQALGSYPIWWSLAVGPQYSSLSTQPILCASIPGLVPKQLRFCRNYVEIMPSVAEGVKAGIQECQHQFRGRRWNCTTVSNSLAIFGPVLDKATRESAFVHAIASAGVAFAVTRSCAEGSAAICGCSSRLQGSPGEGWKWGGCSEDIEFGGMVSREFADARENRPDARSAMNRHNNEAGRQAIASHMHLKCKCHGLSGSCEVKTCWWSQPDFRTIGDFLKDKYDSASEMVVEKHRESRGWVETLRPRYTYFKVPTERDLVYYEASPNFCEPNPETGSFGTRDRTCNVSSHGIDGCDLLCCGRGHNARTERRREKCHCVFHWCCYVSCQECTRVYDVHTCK

[8] = target: T5, Small ubiquitin-related modifier 1 (Homo sapiens, UniProt P63165); experiment: inhibitors of SUMO1 partner interactions, dose response, biochemical, FRET (AID 624383); format: functional; conditions: read-out: IC50_Mean
T5 sequence (P63165 whole entry): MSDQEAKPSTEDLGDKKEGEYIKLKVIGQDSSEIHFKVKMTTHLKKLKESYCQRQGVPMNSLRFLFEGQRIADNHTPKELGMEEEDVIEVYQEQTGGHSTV

[9] = target: T5, Small ubiquitin-related modifier 1; experiment: inhibitors of SUMO1 peptide binding, dose response, biochemical, fluorescence polarization, uHTS hits (AID 624382); format: functional; conditions: read-out: IC50_Mean
[10] = cytotoxicity in HEK-293T cells, dose response, cytotoxicity control for TCR NF-kB inhibitor project, luminescence, T-cell screen hits (AID 489026); format: functional, cell-based;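 further: cells exposed to compound about 14 hours before the viability readout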
[11] = HepG2 cell cytotoxicity, dose response, cytotoxicity control, plate reader, cherry-pick, antagonist series (AID 743416); format: functional, cell-based
[12] = MC4R antagonists, dose response, counter-screen for LGR2 antagonist project, cell-based, plate reader, cherry pick (AID 743444); format: functional;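 further: transfected HEK 293 cells stimulated with alpha-MSH peptide; potency of inhibitors of the alpha-MSH evoked signal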
[13] = control 3'UTR Renilla luciferase suppression, dose response, counter-screen for Shn3 inhibitor project, cell-based, Clone20-Shn3RL, cherry-picked (AID 624133); format: functional
[14] = HepG2 cell cytotoxicity, dose response, cytotoxicity control for Shn3 inhibitor project, CellTiter-Glo, cherry-picked (AID 624134); format: functional, cell-based
[15] = tested on: INS1; experiment: beta cell apoptosis inhibitors, cytokine rescue, dose response, luminescence, retest (AID 449756); format: functional, cell-based; conditions: Rattus norvegicus;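 further: cell death triggered by IL-1 beta plus TNF-alpha plus IFN-gamma mixture; protective hits raise ATP signal compared with cytokine alone wells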
[16] = Shn3 3'UTR reporter inhibitors, dose response, cell-based, Clone20 osteoblasts, firefly luciferase, cherry-picked (AID 624132); format: functional;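 further: firefly luciferase luminescence from reporter carrying the Shn3 3'UTR in osteoblasts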
[17] = LGR2 antagonists, dose response, cell-based, HEK293, CRE-luciferase reporter, cherry pick, set 2 (AID 743343); format: functional;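 further: transfected cells were stimulated with diluted bursicon conditioned medium after compound addition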
[18] = A549 cell cytotoxicity, dose response, cytotoxicity control, plate reader, cherry-pick, antagonist series (AID 743412); format: functional, cell-based
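Wherever EC50 is given: target is galanin receptor GalR3 read with a cAMP biosensor in HEK293 cells.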

Chain of Dual specificity protein phosphatase 3 (P51452 whole entry, the tested form may be a part): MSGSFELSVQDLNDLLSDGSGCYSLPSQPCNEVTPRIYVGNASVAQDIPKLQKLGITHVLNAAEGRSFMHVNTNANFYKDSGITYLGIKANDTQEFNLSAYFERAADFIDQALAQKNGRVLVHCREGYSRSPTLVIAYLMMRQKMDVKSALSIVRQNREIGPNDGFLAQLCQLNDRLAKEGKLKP

With `COc1cccc(Nc2nn3c(=O)c4ccccc4nc3s2)c1` the IC50 [1] was 6.62 µM (active), the IC50 [2] was 12.8 µM (active) and the IC50 [3] was 9.22 µM (active). For the same molecule, the IC50 [4] was 24.9 µM (inactive).

With `COc1ccc(C2=CC(c3ccc4c(c3)OCO4)c3c(c4ccccc4oc3=O)O2)cc1OC` (stereo not drawn) the EC50 [5] was > 29.9 µM (inactive) and the IC50 [6] was 5.72 µM (active).

With `CNS(=O)(=O)c1cccc(C(=O)OCC(=O)c2cc(C)n(CC3CCCO3)c2C)c1` (stereo not drawn) the IC50 [7] was 28.9 µM (inactive).

For `CCOC(=O)c1cc(-c2ccc(OC)cc2)nn1-c1ccccc1C(=O)O`, the IC50 [8] was 21.8 µM (inactive), the IC50 [2] was 14.5 µM (active) and the IC50 [9] was > 66.6 µM (inactive).

With `O=C(CSc1nc(C2CC2)nc2ccccc12)Nc1cccc(O)c1` the IC50 [8] was 20.4 µM (inactive) and the IC50 [9] was > 66.6 µM (inactive).

With `Cc1ncoc1C(=O)NC1CCCc2c1cnn2-c1ccc(C(C)(C)C)cc1` (stereo not drawn) the IC50 [10] was > 80 µM (inactive) and the IC50 [7] was 4.53 µM (active).

With `COc1c(/C=C2\SC(Nc3ccccc3Cl)=NC2=O)cccc1[N+](=O)[O-]` the EC50 [5] was > 29.9 µM (inactive) and the IC50 [6] was 0.547 µM (active).

With `O=C(NCCCl)NNc1c(Cl)cc(Cl)cc1Cl` the EC50 [5] was > 29.9 µM (inactive) and the IC50 [6] was > 29.9 µM (inactive).

With `Cc1sc2nc(CSC(C)C(=O)Nc3ccc(Cl)cn3)nc(O)c2c1C` (stereo not drawn) the IC50 [1] was 0.927 µM (active), the IC50 [3] was 5.47 µM (active) and the IC50 [4] was 15.6 µM (active).

In the case of `COc1ccc(N(CC(=O)NCc2cccs2)S(=O)(=O)c2ccc(C(C)=O)cc2)cc1`, the AC50 [11] is reported as > 52 µM (inactive).

For `Cc1cc(C)c(C)c(S(=O)(=O)N2CCN(c3ncnc4ccccc34)CC2)c1C`, the AC50 [12] was 34.2 µM (active), the AC50 [13] was 1.86 µM (active) and the AC50 [11] was 4.26 µM (active). For the same molecule, the AC50 [14] was 1.91 µM (active), the AC50 [15] was 2.22 µM (active) and the AC50 [16] was 1.46 µM (active). The AC50 [17] was 24.9 µM (active), the IC50 [7] was 1.96 µM (active) and the AC50 [18] was 31.4 µM (active).

In the case of `O=C(Nc1ccc2oc(=O)ccc2c1)c1ccc(-c2ccccc2[N+](=O)[O-])o1`, the IC50 [8] is reported as 10.2 µM (active) and the IC50 [9] is reported as > 66.6 µM (inactive).
